Measurements: patent publication US10562898B2, “Substituted benzenesulfonamides as inhibitors of alpha-4 beta-7 integrin activity” (EA PHARMA CO., LTD., priority 2016, dated 2020)

Target: T1, α4β7 integrin (Homo sapiens, UniProt P13612+P26010)
T1 construct: a cell line RPMI-8866, which is known to express α4β7 integrin; endogenous in cells; host or cells: RPMI-8866 (human B cell line)
T1 sequence (P13612 34-1032): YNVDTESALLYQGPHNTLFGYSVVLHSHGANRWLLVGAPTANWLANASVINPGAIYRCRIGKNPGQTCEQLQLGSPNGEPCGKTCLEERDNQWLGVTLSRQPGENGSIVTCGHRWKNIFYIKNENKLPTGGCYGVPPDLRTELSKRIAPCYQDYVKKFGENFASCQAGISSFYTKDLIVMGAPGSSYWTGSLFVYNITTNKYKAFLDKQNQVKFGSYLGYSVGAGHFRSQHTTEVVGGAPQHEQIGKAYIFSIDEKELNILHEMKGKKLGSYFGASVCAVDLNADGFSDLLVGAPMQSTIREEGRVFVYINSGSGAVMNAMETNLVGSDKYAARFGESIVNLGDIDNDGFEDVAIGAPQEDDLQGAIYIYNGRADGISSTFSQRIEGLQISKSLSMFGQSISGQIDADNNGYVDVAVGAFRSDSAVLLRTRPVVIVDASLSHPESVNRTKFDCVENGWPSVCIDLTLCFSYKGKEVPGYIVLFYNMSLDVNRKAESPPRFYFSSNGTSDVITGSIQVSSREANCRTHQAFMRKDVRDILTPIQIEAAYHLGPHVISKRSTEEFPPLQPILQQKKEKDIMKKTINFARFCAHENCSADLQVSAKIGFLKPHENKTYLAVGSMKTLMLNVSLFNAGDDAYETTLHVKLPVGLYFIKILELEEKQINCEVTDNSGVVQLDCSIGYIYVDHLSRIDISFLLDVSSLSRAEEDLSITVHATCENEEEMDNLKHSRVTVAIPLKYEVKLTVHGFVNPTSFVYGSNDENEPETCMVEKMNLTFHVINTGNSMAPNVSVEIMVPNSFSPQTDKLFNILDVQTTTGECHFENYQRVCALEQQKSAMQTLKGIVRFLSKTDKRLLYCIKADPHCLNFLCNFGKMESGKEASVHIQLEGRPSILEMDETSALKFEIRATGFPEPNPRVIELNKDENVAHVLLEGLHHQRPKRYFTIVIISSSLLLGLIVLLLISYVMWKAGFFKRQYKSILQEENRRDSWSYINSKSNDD
T1 sequence (P26010 20-798): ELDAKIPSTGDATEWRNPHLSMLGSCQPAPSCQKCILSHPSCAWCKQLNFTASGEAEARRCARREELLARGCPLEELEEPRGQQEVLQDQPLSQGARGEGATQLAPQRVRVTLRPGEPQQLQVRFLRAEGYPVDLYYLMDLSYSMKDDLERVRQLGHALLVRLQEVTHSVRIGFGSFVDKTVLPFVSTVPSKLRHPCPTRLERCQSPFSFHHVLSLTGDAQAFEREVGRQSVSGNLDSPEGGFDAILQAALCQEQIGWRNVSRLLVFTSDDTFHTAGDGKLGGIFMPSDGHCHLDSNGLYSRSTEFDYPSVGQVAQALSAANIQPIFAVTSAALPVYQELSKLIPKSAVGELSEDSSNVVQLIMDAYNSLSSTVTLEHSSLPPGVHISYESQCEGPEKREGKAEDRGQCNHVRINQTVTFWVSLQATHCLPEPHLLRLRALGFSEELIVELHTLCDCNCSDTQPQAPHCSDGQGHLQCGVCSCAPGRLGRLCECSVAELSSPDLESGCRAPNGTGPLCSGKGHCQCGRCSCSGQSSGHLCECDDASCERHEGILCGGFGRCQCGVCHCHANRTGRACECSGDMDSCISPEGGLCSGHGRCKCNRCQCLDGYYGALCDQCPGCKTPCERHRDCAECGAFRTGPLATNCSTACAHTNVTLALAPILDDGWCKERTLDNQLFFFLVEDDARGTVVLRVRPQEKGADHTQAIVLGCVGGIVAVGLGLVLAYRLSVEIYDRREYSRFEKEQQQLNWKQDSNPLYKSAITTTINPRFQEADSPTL
Test: MAdCAM-1/α4β7 integrin binding inhibitory activity evaluation test (RPMI-8866 cells binding to MAdCAM-1/Fc)
Assay type: cell-based
Conditions: recombinant mouse MAdCAM-1/Fc, no serum
Experimental: (2) MAdCAM-1/α4β7 Integrin Binding Inhibitory Activity Evaluation Test
Each test substance was measured in terms of an ability to inhibit the MAdCAM-1 binding of a human B cell line, namely, a cell line RPMI-8866, which is known to express α4β7 integrin.
A solution of recombinant mouse MAdCAM-1/Fc (R&D Systems, Inc.) (0.75 μg/mL) diluted with a buffer A (carbonate buffer, pH 9.6) was added in an amount of 50 μL/well to a 96-well microtiter plate, followed by incubation at 4° C. overnight. After the plate was washed with PBS once, 150 μL/well of Block Ace (Snow Brand Milk Products Co., Ltd.) was added, followed by incubation at room temperature for 2 hours. After removal, the plate was washed with PBS once.
Then, 100 μL of the RPMI-8866 cells (2×10^6 cells/mL) and 100 μL of the test substance at each of various concentrations diluted with a binding buffer (DMEM containing 40 mM HEPES, 0.2% BSA, and 4 mM MnCl2) were added on the plate coated with the MAdCAM-1/Fc (5×10^5 cells/well), followed by incubation at 30° C. for 15 to 60 minutes. After the cells were bound to the wells, the plate was washed with PBS to remove unbound cells. A buffer C (PBS containing 1.5% Triton X-100) in an amount 50 μL/well was added to the plate to lyse the bound RPMI-8866 cells. After 30 μL of a substrate buffer (Promega, CytoTox 96 Non-Radioactive Cytotoxicity Assay) was added to 30 μL of the cell lysate, a reaction was allowed to proceed at room temperature in the dark for 30 minutes. After 30 μL of a stop solution (Promega, CytoTox 96 Non-Radioactive Cytotoxicity Assay) was added to each, and then an absorbance at 490 nm was measured using a plate reader. The absorbance obtained here represents a detection result of an activity of lactate dehydrogenase (LDH) eluted in the supernatant of each well, that is, the absorbance is proportional to the number of RPMI-8866 cells bound to the MAdCAM-1 and thus remaining on the plate. The test was performed in duplicate. Provided that the absorbance of the well containing no test substance was 100%, a cell binding rate with the test substance at each of the various concentrations was figured out, and a concentration IC50 which brought about 50% binding inhibition was calculated.

Row | Structure (SMILES) | IC50
1 | Cc1c(C)n(C)c(=O)n(-c2ccc(C[C@H](NC(=O)c3cc(F)c(NS(=O)(=O)c4ccc(NC(=O)C(C)(C)C)cc4)cc3F)C(=O)O)cn2)c1=O [Compound A28] | 0.56 nM
2 | Cn1c(=O)n(-c2ccc(C[C@H](NC(=O)c3cc(F)c(NS(=O)(=O)c4ccc(NC(=O)C5(c6ccccc6)CC5)cc4)cc3F)C(=O)O)cn2)c(=O)c2ccncc21 [Compound A29] | 0.95 nM
3 | Cc1c(C)n(C)c(=O)n(-c2ccc(C[C@H](NC(=O)c3cc(F)c(NS(=O)(=O)c4ccc(NC(=O)C5(c6ccccc6)CC5)cc4)cc3F)C(=O)O)cc2)c1=O [Compound A30] | 0.57 nM
4 | Cn1c(=O)n(-c2ccc(C[C@H](NC(=O)c3cc(F)c(NS(=O)(=O)c4ccc(NC(=O)C(C)(C)C)cn4)cc3F)C(=O)O)cn2)c(=O)c2ccncc21 [Compound A31] | 0.71 nM
5 | Cc1c(C)n(C)c(=O)n(-c2ccc(C[C@H](NC(=O)c3cc(F)c(NS(=O)(=O)c4ccc(NC(=O)C(C)(C)C)cn4)cc3F)C(=O)O)cn2)c1=O [Compound A32] | 0.62 nM
6 | Cn1c2c(c(=O)n(-c3ccc(C[C@H](NC(=O)c4cc(F)c(NS(=O)(=O)c5ccc(NC(=O)C(C)(C)C)cc5)cc4F)C(=O)O)cc3)c1=O)COCC2 [Compound A33] | 0.45 nM
7 | Cc1c(C)n(C)c(=O)n(-c2ccc(C[C@H](NC(=O)c3cc(F)c(NS(=O)(=O)c4ccc(-n5ccc(C6CCOCC6)cc5=O)cc4)cc3F)C(=O)O)cc2)c1=O [Compound A34] | 3.4 nM
8 | Cc1c(C)n(C)c(=O)n(-c2ccc(C[C@H](NC(=O)c3cc(F)c(NS(=O)(=O)c4ccc(N(C)C(=O)C(C)(C)C)cc4)cc3F)C(=O)O)cc2)c1=O [Compound A35] | 9.8 nM
9 | COc1cc2c(=O)n(-c3ccc(C[C@H](NC(=O)c4cc(F)c(NS(=O)(=O)c5ccc(NC(=O)C(C)(C)C)cc5)cc4F)C(=O)O)cc3)c(=O)n(C)c2cn1 [Compound A36] | 0.94 nM
10 | Cc1cn(C)c(=O)n(-c2ccc(C[C@H](NC(=O)c3cc(F)c(NS(=O)(=O)c4ccc(NC(=O)C(C)(C)C)cc4)cc3F)C(=O)O)cc2)c1=O [Compound A37] | 1.1 nM
11 | CN1C(=O)N(c2ccc(S(=O)(=O)Nc3cc(F)c(C(=O)N[C@@H](Cc4ccc(-n5c(=O)c6ccncc6n(C)c5=O)nc4)C(=O)O)cc3F)cc2)C(=O)C1(C)C [Compound A38] | 5.2 nM
12 | Cn1c2c(c(=O)n(-c3ccc(C[C@H](NC(=O)c4cc(F)c(NS(=O)(=O)c5ccc(NC(=O)C(C)(C)C)cc5)cc4F)C(=O)O)cn3)c1=O)CCOC2 [Compound A40] | 0.74 nM
13 | CN1CCc2c(n(C)c(=O)n(-c3ccc(C[C@H](NC(=O)c4cc(F)c(NS(=O)(=O)c5ccc(NC(=O)C(C)(C)C)cc5)cc4F)C(=O)O)cc3)c2=O)C1 [Compound A41] | 0.29 nM

The next lines start with the values.

Row | IC50 | Structure (SMILES)
14 | 0.77 nM | Cn1ccc(=O)n(-c2ccc(C[C@H](NC(=O)c3cc(F)c(NS(=O)(=O)c4ccc(NC(=O)C(C)(C)C)cc4)cc3F)C(=O)O)cc2)c1=O [Compound A42]
15 | 0.42 nM | Cn1cnc2c1c(=O)n(-c1ccc(C[C@H](NC(=O)c3cc(F)c(NS(=O)(=O)c4ccc(NC(=O)C(C)(C)C)cc4)cc3F)C(=O)O)cc1)c(=O)n2C [Compound A43]
16 | 0.48 nM | Cn1c2c(c(=O)n(-c3ccc(C[C@H](NC(=O)c4cc(F)c(NS(=O)(=O)c5ccc(NC(=O)C(C)(C)C)cc5)cc4F)C(=O)O)cn3)c1=O)COCC2 [Compound A44]
17 | 1.6 nM | Cc1cc(=O)n(-c2ccc(C[C@H](NC(=O)c3cc(F)c(NS(=O)(=O)c4ccc(NC(=O)C(C)(C)C)cc4)cc3F)C(=O)O)cn2)c(=O)n1C [Compound A45]
18 | 0.76 nM | Cc1cc(=O)n(-c2ccc(C[C@H](NC(=O)c3cc(F)c(NS(=O)(=O)c4ccc(NC(=O)C(C)(C)C)cc4)cc3F)C(=O)O)cc2)c(=O)n1C [Compound A46]
19 | 0.74 nM | Cn1c2c(c(=O)n(-c3ccc(C[C@H](NC(=O)c4cc(F)c(NS(=O)(=O)c5ccc(NC(=O)C(C)(C)C)cc5)cc4F)C(=O)O)nc3)c1=O)CCCC2 [Compound A47]
20 | 2 nM | Cc1c(C)n(C(C)C)c(=O)n(-c2ccc(C[C@H](NC(=O)c3cc(F)c(NS(=O)(=O)c4ccc(NC(=O)C(C)(C)C)cc4)cc3F)C(=O)O)cc2)c1=O [Compound A48]
21 | 2.9 nM | Cc1c(C)n(C)c(=O)n(-c2ccc(C[C@H](NC(=O)c3cc(F)c(NS(=O)(=O)c4cccc(NC(=O)C(C)(C)C)c4)cc3F)C(=O)O)cc2)c1=O [Compound A49]
22 | 6.4 nM | Cc1c(C)n(C)c(=O)n(-c2ccc(C[C@H](NC(=O)c3cc(F)c(NS(=O)(=O)c4cccc(NC(=O)C(C)(C)C)c4)cc3F)C(=O)O)cn2)c1=O [Compound A50]
23 | 3.1 nM | Cc1c(CO)c(=O)n(-c2ccc(C[C@H](NC(=O)c3cc(F)c(NS(=O)(=O)c4ccc(NC(=O)C(C)(C)C)cc4)cc3F)C(=O)O)cc2)c(=O)n1C [Compound A51]
24 | 0.7 nM | Cn1c2c(c(=O)n(-c3ccc(C[C@H](NC(=O)c4cc(F)c(NS(=O)(=O)c5ccc(NC(=O)C(C)(C)C)cc5)cc4F)C(=O)O)cn3)c1=O)CCCC2 [Compound A52]
25 | 2 nM | Cn1ccc(=O)n(-c2ccc(C[C@H](NC(=O)c3cc(F)c(NS(=O)(=O)c4ccc(NC(=O)C(C)(C)C)cc4)cc3F)C(=O)O)cn2)c1=O [Compound A53]
26 | 1.6 nM | Cc1cn(C)c(=O)n(-c2ccc(C[C@H](NC(=O)c3cc(F)c(NS(=O)(=O)c4ccc(NC(=O)C(C)(C)C)cc4)cc3F)C(=O)O)cn2)c1=O [Compound A54]
27 | 2.2 nM | Cn1ccc(=O)n(-c2ccc(C[C@H](NC(=O)c3cc(F)c(NS(=O)(=O)c4ccc(NC(=O)C5(C(F)(F)F)CC5)cc4)cc3F)C(=O)O)cn2)c1=O [Compound A55]
28 | 1.2 nM | Cc1cn(C)c(=O)n(-c2ccc(C[C@H](NC(=O)c3cc(F)c(NS(=O)(=O)c4ccc(NC(=O)C5(C(F)(F)F)CC5)cc4)cc3F)C(=O)O)cn2)c1=O [Compound A56]
29 | 2 nM | Cn1ccc(=O)n(-c2ccc(C[C@H](NC(=O)c3cc(F)c(NS(=O)(=O)c4ccc(NC(=O)C(C)(C)C(F)(F)F)cc4)cc3F)C(=O)O)cn2)c1=O [Compound A57]
